How the values were obtained:
Rattus norvegicus = species on record: Rattus norvegicus; test: In vitro metabolism in rat liver microsomes was evaluated to determine diminishing of glucuronidation rate; format: ADME
[1] = Half life period in vivo; format: ADME, organism-based
Glucagon receptor [2] = target: Glucagon receptor (Rattus norvegicus, UniProt P30082); test: In vitro inhibitory activity against rat glucagon receptor using […]-labeled glucagon
Glucagon receptor [3] = target: Glucagon receptor (Homo sapiens, UniProt P47871); test: In vitro inhibitory activity against human glucagon receptor using […]-labeled glucagon
Glucagon receptor (Homo sapiens, UniProt P47871), sequence (P47871 whole entry): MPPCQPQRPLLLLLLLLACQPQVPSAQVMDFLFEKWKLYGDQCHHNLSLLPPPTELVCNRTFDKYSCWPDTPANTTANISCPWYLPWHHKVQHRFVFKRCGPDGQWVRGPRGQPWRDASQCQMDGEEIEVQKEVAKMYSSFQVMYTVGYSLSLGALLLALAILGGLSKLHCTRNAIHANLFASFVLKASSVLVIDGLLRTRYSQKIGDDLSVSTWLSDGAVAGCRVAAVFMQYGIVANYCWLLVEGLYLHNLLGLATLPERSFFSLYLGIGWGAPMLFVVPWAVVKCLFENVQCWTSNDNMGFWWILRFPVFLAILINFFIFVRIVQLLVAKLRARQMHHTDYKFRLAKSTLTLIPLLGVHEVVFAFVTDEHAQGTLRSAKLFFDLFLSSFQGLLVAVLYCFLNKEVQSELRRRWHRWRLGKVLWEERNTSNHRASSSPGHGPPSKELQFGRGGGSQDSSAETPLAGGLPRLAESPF

Glucagon receptor (Rattus norvegicus, UniProt P30082), sequence (P30082 whole entry): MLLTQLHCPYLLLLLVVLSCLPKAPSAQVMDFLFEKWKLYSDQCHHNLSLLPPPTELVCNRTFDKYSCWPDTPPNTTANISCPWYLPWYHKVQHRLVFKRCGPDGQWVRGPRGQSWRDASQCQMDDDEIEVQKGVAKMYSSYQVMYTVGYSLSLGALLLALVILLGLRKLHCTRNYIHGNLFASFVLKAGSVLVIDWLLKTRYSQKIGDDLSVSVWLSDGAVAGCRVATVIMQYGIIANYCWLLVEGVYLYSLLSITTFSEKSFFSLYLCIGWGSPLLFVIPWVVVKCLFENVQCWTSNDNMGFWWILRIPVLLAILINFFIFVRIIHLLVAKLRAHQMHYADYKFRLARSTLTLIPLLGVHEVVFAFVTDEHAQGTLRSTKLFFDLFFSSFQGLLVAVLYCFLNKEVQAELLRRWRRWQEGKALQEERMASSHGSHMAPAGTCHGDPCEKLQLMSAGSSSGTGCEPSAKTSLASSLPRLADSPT

IC50 (Glucagon receptor [3]) [nM]	Compound	also measured
20	COc1cc(/C=N/NC(=O)c2ccc(O)c(C#N)c2)cc(OC)c1OCc1ccc(C(C)C)cc1	Rate (Rattus norvegicus): 27 pM min-1 (mg of protein)-1; half-life [1]: 60 min; IC50 (Glucagon receptor [2]): 1 nM
84	CC(C)c1ccc(Cn2ccc3c(/C=N/NC(=O)c4ccc(O)c(Cl)c4)cccc32)cc1	–
130	CCN(CC)C(=O)COc1ccc(/C=N/NC(=O)c2ccc(O)c(Cl)c2)c2ccccc12	–
870	COc1ccc(/C=N/NC(=O)c2ccc(O)c(Cl)c2)c2ccccc12	–
50	COc1cc(/C=N/NC(=O)c2ccc(O)c([N+](=O)[O-])c2)cc(OC)c1OCc1ccc(C(C)C)cc1	–
2700	COc1cc(/C=N/NC(=O)c2ccc(O)c(O)c2)cc(OC)c1OCc1ccc(C(C)C)cc1	–
31	COc1cc(/C=N/NC(=O)c2ccc(O)c(Cl)c2Cl)cc(OC)c1OCc1ccc(C(C)C)cc1	–
78300	COc1cc(/C=N/NS(=O)(=O)c2ccc(O)c(Cl)c2)cc(OC)c1OCc1ccc(C(C)C)cc1	–
110	COc1cc(/C=N/NC(=O)c2ccc(O)c(F)c2)cc(OC)c1OCc1ccc(C(C)C)cc1	–
180	COc1cc(/C=N/NC(=O)c2ccc(O)c(Cl)c2)cc(OC)c1OCc1ccc(OC(F)(F)F)cc1	–
5200	COc1cc(CCNC(=N)c2ccc(O)c(Cl)c2)cc(OC)c1OCc1ccc(C(C)C)cc1	–
1300	COc1cc(/C=N/NC(=O)c2ccc(O)c(Cl)c2)ccc1OCc1ccc(C(C)C)cc1	–
940	COc1cc(/C=N/NC(=O)c2ccc(O)c(N)c2)cc(OC)c1OCc1ccc(C(C)C)cc1	–
1200	NC(=O)COc1ccc(/C=N/NC(=O)c2ccc(O)c(Cl)c2)c2ccccc12	–
1500	CC(C)c1ccc(COc2ccc(/C=N/NC(=O)c3ccc(O)c(Cl)c3)cc2)cc1	–
330	Cc1cc(/C=N/NC(=O)c2ccc(O)c(Cl)c2)cc(C)c1OCc1ccc(C(C)C)cc1	–

IC50 (Glucagon receptor [3]) [nM]	Compound	also measured
690	COC(=O)C(Oc1c(OC)cc(/C=N/NC(=O)c2ccc(O)c(Cl)c2)cc1OC)c1ccccc1 (configuration not stated)	–
150	COc1cc(/C=N/NC(=O)c2ccc(O)c(Cl)c2)cc(OC)c1OCc1ccc(F)c(F)c1	–
48	COc1cc(/C=N/NC(=O)c2ccc(O)c(F)c2F)cc(OC)c1OCc1ccc(C(C)C)cc1	–
1900	COc1cc(CCNC(=O)c2ccc(O)c(Cl)c2)cc(OC)c1OCc1ccc(C(C)C)cc1	–
160	CC(C)(C)c1nc(COc2ccc(/C=N/NC(=O)c3ccc(O)c(Cl)c3)c3ccccc23)no1	–
880	COc1cc(CNNC(=O)c2ccc(O)c(Cl)c2)cc(OC)c1OCc1ccc(C(C)C)cc1	–
58	O=C(N/N=C/c1ccc(OCc2ccc(OC(F)(F)F)cc2)c2ccccc12)c1ccc(O)c(Cl)c1	–
30000	COc1cc(/C=N/NC(=O)c2ccc(O)c(Cl)c2)cc(C(=O)O)c1OCc1ccc(C(C)C)cc1	–
53	CC(C)c1ccc(COc2ccc(/C=N/NC(=O)c3ccc(O)c(Cl)c3)c3ccccc23)cc1	–
23	COc1cc(/C=N/NC(=O)c2ccc(O)c(Cl)c2)cc(OC)c1OCc1ccc(C(C)C)cc1	Rate (Rattus norvegicus): 169 pM min-1 (mg of protein)-1; half-life [1]: 18 min
6400	COc1cc(/C=C/C(=O)Nc2ccc(O)c(Cl)c2)cc(OC)c1OCc1ccc(C(C)C)cc1	–
140	O=C(N/N=C/c1ccc(OCC2CCCCO2)c2ccccc12)c1ccc(O)c(Cl)c1 (configuration not stated)	–
390	CC(C)c1ccc(Cn2cc(/C=N/NC(=O)c3ccc(O)c(Cl)c3)c3ccccc32)cc1	–
740	Cc1c(/C=N/NC(=O)c2ccc(O)c(Cl)c2)ccc(OCc2ccc(C(C)C)cc2)c1C	–
690	COc1cc(/C=N/NC(=O)c2ccc(O)cc2)cc(OC)c1OCc1ccc(C(C)C)cc1	–

Compound	IC50 (Glucagon receptor [3]) [nM]	also measured
COc1cc(/C(C)=N/NC(=O)c2ccc(O)c(Cl)c2)cc(OC)c1OCc1ccc(C(C)C)cc1	> 100000	–

From ChEMBL document CHEMBL1135077, “Human glucagon receptor antagonists based on alkylidene hydrazides” (Bioorg Med Chem Lett, 2002)
